Data published in patent publication US20250313559A1 (Bayer Aktiengesellschaft, priority 2024, published 2025).
Where two headings read alike, the source gives them in different places.

Tests used:
[1] = system: patients with HF and LVEF ≥40%; assay: […]-HF (Example 2) health status: KCCQ-TSS, NYHA class, EQ-5D-5L; type: in vivo, human; settings: adjusted for baseline value, geographic region
Protocol: Kansas City Cardiomyopathy Questionnaire (KCCQ) is a standardized patient reported outcomes (PRO) questionnaire which assesses symptoms, physical and social limitations, and quality of life in patients with heart failure (HF). Patients are asked to recall how their HF impacted their life over a 2-week recall period.
Total HF events was analyzed using an LWYY model in a similar fashion to the primary endpoint. The percentage of participants with improvement in NYHA class from Baseline to Month 12, was analyzed with a logistic regression model including factors for treatment group and stratification levels. Patients that died or are lost to follow-up at month 12 was considered to had not improved. The absolute change from baseline including measurements up to Month 12 of the TSS of the KCCQ, was analyzed by a repeated measures mixed model including the factors treatment group, baseline, visit, baseline-by-visit interaction, and factors for the stratification levels. The comparison assumed a common treatment effect across Month 6, 9 and 12. […] The composite renal endpoint and all-cause mortality was analyzed using a stratified log-rank test for testing and a stratified Cox proportional hazards model for obtaining a point estimate with 95% confidence interval. […]

[2] = system: patients with heart failure and a left ventricular ejection fraction ≥40%
[3] = cited from earlier work
[4] = system: participants with chronic kidney disease and Type-2 diabetes; settings: cited from earlier work
[5] = system: preclinical cardiorenal models; settings: preclinical cardiorenal models which develop heart failure; cited from earlier work
[6] = system: natriuretic peptide levels; settings: ARTS-HF trial, phase 2; cited from earlier work
[7] = system: patients across cardio-kidney-metabolic disease states
[8] = No SGLT2i Use at baseline, n = 2,610
[9] = SGLT2i Use at baseline, n = 393
[10] = FINE-HEART pooled safety population, finerenone n = 9,482, treatment-emergent
[11] = FINE-HEART pooled safety population, n = 9,482
[12] = FINE-HEART pooled, n = 9,482, investigator reported adverse events

CCOc1ncc(C)c2c1[C@H](c1ccc(C#N)cc1OC)C(C(N)=O)=C(C)N2 [finerenone, (4S)-4-(4-cyano-2-methoxyphenyl)-5-ethoxy-2,8-dimethyl-1,4-dihydro-1,6-naphthyridine-3-carboxamide]
Change in KCCQ-TSS from baseline to 12 months, difference in mean (95% CI) finerenone vs placebo ([1]; bilirubin Tertile 2 0.5-0.6 mg/dL): 0.69 (−0.92 to 2.30)
Change in KCCQ-TSS from baseline to 12 months, difference in mean (95% CI) finerenone vs placebo ([1]; bilirubin Tertile 3 ≥0.7 mg/dL): 3.15 (1.52 to 4.77)
Absolute risk reduction, primary outcome ([2]; HFimpEF (history of LVEF<40%)): 9.2 per 100 py
Absolute risk reduction, primary outcome ([2]; LVEF consistently 40% (no HFimpEF)): 2.5 per 100 py
All-cause death, HR (95% CI) finerenone vs placebo ([2]; No SGLT2i Use at baseline): 0.94 (0.82, 1.07)
Renal composite endpoint, HR (95% CI) finerenone vs placebo ([2]; No SGLT2i Use at baseline): 1.43 (0.98, 2.08)
Total worsening HF events, RR (95% CI) finerenone vs placebo ([2]; No SGLT2i Use at baseline): 0.83 (0.71, 0.97)
Renal composite endpoint, Rate (per 100 py) [2, 8]: 0.8 per 100 py
Total worsening HF events, Rate (per 100 py) [2, 8]: 13.0 per 100 py
All-cause death, HR (95% CI) finerenone vs placebo ([2]; SGLT2i Use at baseline): 0.90 (0.64, 1.27)
Renal composite endpoint, Rate (per 100 py) [2, 9]: 1.3 per 100 py
Total worsening HF events, Events [2, 9]: 194
Total worsening HF events, Rate (per 100 py) [2, 9]: 22.0 per 100 py
Mean systolic blood pressure lower than in the placebo group ([2]; at 6 months): 3.4 mm Hg
All-cause death, event rate per 100 PY ([2]; bilirubin Tertile 2 0.5-0.6 mg/dL, finerenone N = 970): 6.4 per 100 PY
All-cause death, event rate per 100 PY ([2]; bilirubin Tertile 3 ≥0.7 mg/dL, finerenone N = 1,009): 6.6 per 100 PY
Hyperkalemia leading to Hospitalization - no. ([2]; both, human, in vivo): 24
Number of subjects with a treatment-emergent SAE: Acute kidney injury ([2]; both, human, in vivo): 54
Number of subjects with a treatment-emergent SAE: Anaemia ([2]; both, human, in vivo): 34
Number of subjects with a treatment-emergent SAE: Angina pectoris ([2]; both, human, in vivo): 17
Number of subjects with a treatment-emergent SAE: Angina unstable ([2]; both, human, in vivo): 38
Number of subjects with a treatment-emergent SAE: Atrial fibrillation ([2]; both, human, in vivo): 77
Number of subjects with a treatment-emergent SAE: Cardiac failure ([2]; both, human, in vivo): 18
Number of subjects with a treatment-emergent SAE: Cellulitis ([2]; both, human, in vivo): 17
Number of subjects with a treatment-emergent SAE: Chest pain ([2]; both, human, in vivo): 23
Number of subjects with a treatment-emergent SAE: Chronic obstructive pulmonary disease ([2]; both, human, in vivo): 18
Number of subjects with a treatment-emergent SAE: Fall ([2]; both, human, in vivo): 15
Number of subjects with a treatment-emergent SAE: Femur fracture ([2]; both, human, in vivo): 15
Number of subjects with a treatment-emergent SAE: Gastrointestinal haemorrhage ([2]; both, human, in vivo): 17
Number of subjects with a treatment-emergent SAE: Hyperkalemia ([2]; both, human, in vivo): 19
Number of subjects with a treatment-emergent SAE: Pneumonia ([2]; both, human, in vivo): 87
Number of subjects with a treatment-emergent SAE: Syncope ([2]; both, human, in vivo): 25
Number of subjects with treatment-emergent AE leading to treatment discontinuation: Asthenia ([2]; both, human, in vivo): 5
Number of subjects with treatment-emergent AE leading to treatment discontinuation: Diarrhoea ([2]; both, human, in vivo): 4
Number of subjects with treatment-emergent AE leading to treatment discontinuation: Dyspnoea ([2]; both, human, in vivo): 3
Number of subjects with treatment-emergent AE leading to treatment discontinuation: Hyperkalaemia ([2]; both, human, in vivo): 12
Number of subjects with treatment-emergent AE leading to treatment discontinuation: Hypotension ([2]; both, human, in vivo): 3
Number of subjects with treatment-emergent AE leading to treatment discontinuation: Nausea ([2]; both, human, in vivo): 3
Number of subjects with treatment-emergent AE leading to treatment discontinuation: Renal impairment ([2]; both, human, in vivo): 5
Proportion of patients experiencing 15% decline in eGFR ([2]; both, human, in vivo): 20.6%
Subjects with a treatment-emergent SAE (%): Acute kidney injury ([2]; both, human, in vivo): 1.8%
Subjects with a treatment-emergent SAE (%): Anaemia ([2]; both, human, in vivo): 1.1%
Subjects with a treatment-emergent SAE (%): Angina pectoris ([2]; both, human, in vivo): 0.6%
Subjects with a treatment-emergent SAE (%): Angina unstable ([2]; both, human, in vivo): 1.3%
Subjects with a treatment-emergent SAE (%): Atrial fibrillation ([2]; both, human, in vivo): 2.6%
Subjects with a treatment-emergent SAE (%): Cardiac failure ([2]; both, human, in vivo): 0.6%
Subjects with a treatment-emergent SAE (%): Cellulitis ([2]; both, human, in vivo): 0.6%
Subjects with a treatment-emergent SAE (%): Chest pain ([2]; both, human, in vivo): 0.8%
Subjects with a treatment-emergent SAE (%): Chronic obstructive pulmonary disease ([2]; both, human, in vivo): 0.6%
Subjects with a treatment-emergent SAE (%): Coronary artery disease ([2]; both, human, in vivo): 0.7%
Subjects with a treatment-emergent SAE (%): Fall ([2]; both, human, in vivo): 0.5%
Subjects with a treatment-emergent SAE (%): Femur fracture ([2]; both, human, in vivo): 0.5%
Subjects with a treatment-emergent SAE (%): Gastrointestinal haemorrhage ([2]; both, human, in vivo): 0.6%
Subjects with a treatment-emergent SAE (%): Hyperkalemia ([2]; both, human, in vivo): 0.6%
Subjects with a treatment-emergent SAE (%): Pneumonia ([2]; both, human, in vivo): 2.9%
Subjects with a treatment-emergent SAE (%): Syncope ([2]; both, human, in vivo): 0.8%
Subjects with treatment-emergent AE leading to treatment discontinuation (%): Asthenia ([2]; both, human, in vivo): (0.2%)
Subjects with treatment-emergent AE leading to treatment discontinuation (%): Diarrhoea ([2]; both, human, in vivo): (0.1%)
Subjects with treatment-emergent AE leading to treatment discontinuation (%): Dyspnoea ([2]; both, human, in vivo): (0.1%)
Subjects with treatment-emergent AE leading to treatment discontinuation (%): Hyperkalaemia ([2]; both, human, in vivo): (0.4%)
Subjects with treatment-emergent AE leading to treatment discontinuation (%): Hypotension ([2]; both, human, in vivo): (0.1%)
Subjects with treatment-emergent AE leading to treatment discontinuation (%): Nausea ([2]; both, human, in vivo): (0.1%)
Subjects with treatment-emergent AE leading to treatment discontinuation (%): Renal impairment ([2]; both, human, in vivo): (0.2%)
Systolic blood pressure <100 mm Hg - no. ([2]; both, human, in vivo): 538
Systolic BP, mean difference ([2]; by one month, compared with placebo): −2.8 mm Hg
Change in bilirubin during follow-up ([2]; early after randomization): sustained reduction in bilirubin
Change in KCCQ clinical summary score at 6, 9 and 12 mo (least squares mean change) ([2]; finerenone group): +8.0 ± 0.3
Death from any cause - % ([2]; finerenone group): (16.4%)
First worsening heart failure event or death from cardiovascular causes - % ([2]; finerenone group): (20.8%)
Improvement in NYHA class from baseline to 12 mo - % ([2]; finerenone group): (18.6%)
Kidney composite outcome - % ([2]; finerenone group): (2.5%)
Death from cardiovascular causes - % ([2]; finerenone group N = 3,003): (8.1%)
Number of subjects with AE of death or leading to death: COVID-19 ([2]; n = 2,993): 7
Number of subjects with AE of death or leading to death: COVID-19 pneumonia ([2]; n = 2,993): 9
Number of subjects with AE of death or leading to death: Cardiac arrest ([2]; n = 2,993): 12
Number of subjects with AE of death or leading to death: Cardiac failure ([2]; n = 2,993): 6
Number of subjects with AE of death or leading to death: Death ([2]; n = 2,993): 70
Number of subjects with AE of death or leading to death: Lung neoplasm malignant ([2]; n = 2,993): 7
Number of subjects with AE of death or leading to death: Pneumonia ([2]; n = 2,993): 27
Number of subjects with AE of death or leading to death: Respiratory failure ([2]; n = 2,993): 7
Number of subjects with AE of death or leading to death: Sepsis ([2]; n = 2,993): 19
Number of subjects with AE of death or leading to death: Septic shock ([2]; n = 2,993): 12
Number of subjects with AE of death or leading to death: Sudden cardiac death ([2]; n = 2,993): 18
Number of subjects with AE of death or leading to death: Sudden death ([2]; n = 2,993): 20
Number of subjects with a treatment-emergent SAE: COVID-19 ([2]; n = 2,993): 69
Number of subjects with a treatment-emergent SAE: COVID-19 pneumonia ([2]; n = 2,993): 28
Number of subjects with a treatment-emergent SAE: Death ([2]; n = 2,993): 29
Number of subjects with a treatment-emergent SAE: Sepsis ([2]; n = 2,993): 25
Number of subjects with a treatment-emergent SAE: Sudden death ([2]; n = 2,993): 16
Number of subjects with a treatment-emergent SAE: Urinary tract infection ([2]; n = 2,993): 29
Subjects with AE of death or leading to death (%): COVID-19 ([2]; n = 2,993): (0.2%)
Subjects with AE of death or leading to death (%): COVID-19 pneumonia ([2]; n = 2,993): (0.3%)
Subjects with AE of death or leading to death (%): Cardiac arrest ([2]; n = 2,993): (0.4%)
Subjects with AE of death or leading to death (%): Cardiac failure ([2]; n = 2,993): (0.2%)
Subjects with AE of death or leading to death (%): Death ([2]; n = 2,993): (2.3%)
Subjects with AE of death or leading to death (%): Lung neoplasm malignant ([2]; n = 2,993): (0.2%)
Subjects with AE of death or leading to death (%): Pneumonia ([2]; n = 2,993): (0.9%)
Subjects with AE of death or leading to death (%): Respiratory failure ([2]; n = 2,993): (0.2%)
Subjects with AE of death or leading to death (%): Sepsis ([2]; n = 2,993): (0.6%)
Subjects with AE of death or leading to death (%): Septic shock ([2]; n = 2,993): (0.4%)
Subjects with AE of death or leading to death (%): Sudden cardiac death ([2]; n = 2,993): (0.6%)
Subjects with AE of death or leading to death (%): Sudden death ([2]; n = 2,993): (0.7%)
Subjects with a treatment-emergent SAE (%): COVID-19 ([2]; n = 2,993): 2.3%
Subjects with a treatment-emergent SAE (%): COVID-19 pneumonia ([2]; n = 2,993): 0.9%
Subjects with a treatment-emergent SAE (%): Death ([2]; n = 2,993): 1.0%
Subjects with a treatment-emergent SAE (%): Sepsis ([2]; n = 2,993): 0.8%
Subjects with a treatment-emergent SAE (%): Sudden death ([2]; n = 2,993): 0.5%
Subjects with a treatment-emergent SAE (%): Urinary tract infection ([2]; n = 2,993): 1.0%
Hyperkalemia leading to Death - % ([2]; through the end of study): (0%)
Hyperkalemia leading to Death - no. ([2]; through the end of study): 0
Hyperkalemia leading to Death - % ([2]; treatment emergent): (0%)
Hyperkalemia leading to Death - no. ([2]; treatment emergent): 0
tissue distribution between the heart and kidney ([3]; compared with steroidal mineralocorticoid receptor antagonists): more balanced
renal elimination ([3]; in vivo): less than 1%
cardiovascular events, including heart failure hospitalizations [4]: reduced
kidney disease progression [4]: reduced
systolic and diastolic function [5]: improvement
treatment effects on natriuretic peptide levels [6]: dose dependent
Any adverse event leading to treatment discontinuation, % of patients ([7]; FINE-HEART pooled safety population, finerenone n = 9,482): (5.4%)
Any serious adverse event, % of patients [7, 10]: (34.6%)
Any serious adverse event, number of patients [7, 10]: 3,283
Acute kidney injury leading to hospitalization, % of patients [7, 11]: (1.5%)
Acute kidney injury leading to hospitalization, number of patients [7, 11]: 143
Acute kidney injury leading to treatment discontinuation, % of patients [7, 11]: (0.2%)
Acute kidney injury leading to treatment discontinuation, number of patients [7, 11]: 15
Acute kidney injury, % of patients [7, 11]: (3.6%)
Gynecomastia or breast hyperplasia, % of patients [7, 11]: (0.2%)
Gynecomastia or breast hyperplasia, number of patients [7, 11]: 16
Systolic blood pressure<100 mmHg, % of patients [7, 11]: (11.1%)
Systolic blood pressure<100 mmHg, number of patients [7, 11]: 1,040
Any potassium >6.0 mmol/L, % of patients ([7]; FINE-HEART pooled, n = 9,482, central laboratory measurements): (3.3%)
Hyperkalemia leading to death, % of patients [7, 12]: (0.0%)
Hyperkalemia leading to death, number of patients [7, 12]: 0
Hyperkalemia leading to hospitalization, % of patients [7, 12]: (0.8%)
Hyperkalemia leading to hospitalization, number of patients [7, 12]: 80
Hyperkalemia leading to treatment discontinuation, % of patients [7, 12]: (1.3%)
Hyperkalemia, % of patients [7, 12]: (12.8%)
Hyperkalemia, number of patients [7, 12]: 1,216
